Data: patent EP0354042A2, “Aminobenzoic-acid derivatives to reduce side effects induced by an administration of immuno-suppressant” (priority 1988, dated 1990)

Assays:
Wistar male rats [1] = experiment: Kidney function (inulin clearance, serum creatinine) of rats given CsA with the present substance; format: in vivo; details: CsA 25 mg/kg/day i.p. 3 weeks plus present substance 300 mg/kg/day orally
Procedure: (§1) Various clearance tests and a saccharide tolerance test were performed after completion of the administrations. Then, after sacrificing the rats, their blood was taken for serum biochemical and general blood tests.

[2] = tested on: TA98 of Salmonella typhimurium; experiment: Reversion assay (reversion colony test) TA98; format: cell-based
Procedure: (§2) In addition, a reversion assay was performed using TA98 and TA100 of Salmonella typhimurium (both are histidine-requiring bacteria).
(§3) 10% by volume of 0.5 mM bithion solution containing 0.5 mM histidine was added to a soft agar solution (prepared with 6g of NaCl, 6g of agar and 1,000 ml of distilled water). Then, 0.1 ml of a solution containing 1 x 10⁸ of the bacteria and 0.1 ml of a solution of the present substance were added to 2 ml of the soft agar solution, mixed well and obtained soft agar solution was multilayered on a minimal agar medium. The medium layered was cultured at 37°C for 2 days and number of reversion colonies was counted. Furylfuramide (AF2) was used as a positive control.

human lymphocyte = experiment: Mixed lymphocyte culture, 3H-thymidine uptake (proliferation of lymphocytes); format: cell-based; details: CsA 0.1 µg/ml plus present substance 100 µg/ml, cultured 6 days;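 also: percent suppression of proliferation derived from uptake with CsA alone versus CsA plus substance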
Procedure: A mixture of 50 µl of human lymphocyte (1.6 x 10⁶/ml) with 50 µl of the lymphocytes treated with mitomycin C (MMC) (1.7 x 10⁶/ml) was cultured for 6 days and an uptake of ³H-thymidine, an index of proliferation of lymphocyte, was studied. The medium used for culture comprised bovine fetal serum (10% in quantity) and RPMI 1640 (90% in quantity). […] From the calculated ratio, the effects of the present substance on immuno function were studied.

[3] = tested on: TA100 of Salmonella typhimurium; experiment: Reversion assay (reversion colony test) TA100; format: cell-based
Procedure: as §2, §3

Bacillus subtilis H17 = experiment: Mutagenicity Rec-assay, recombination repair proficient strain
Procedure: (§4) First, mutagenecity was studied with Rec-assay. […] The present substance was dissolved with sterlized water, 0.05 ml of the solution was absorbed by a round filter paper having a diameter of 8 mm and immediately the filter paper was laid on the medium (B-II agar) in a manner to cover each of the satrt point of the streak. Then, the mdium was cultured for 16 hours at a temperature of 37°C and measured growth inhibited area. Kanamycin was used as a negative control and mitomycin as a positive control.

[4] = Body weight of rats given CsA with the present substance; format: in vivo, Wistar male rats; details: at completion of the test; CsA 25 mg/kg/day i.p. 3 weeks plus present substance 300 mg/kg/day orally
Procedure: as §1

Bacillus subtilis M45 = experiment: Mutagenicity Rec-assay, recombination repair deficient strain; details: for Growth Inhibited Area M45 - H17: difference between strains
Procedure: as §4

Wistar male rats [5] = experiment: Saccharide tolerance test (pancreas function) of rats given CsA with the present substance; format: in vivo; details: CsA 25 mg/kg/day i.p. 3 weeks plus present substance 300 mg/kg/day orally
Procedure: as §1

Jcl:ICR mice = experiment: Acute toxicity (LD50, Litchfield-Wilcoxon); format: in vivo; details: observed 7 days; for LD₅₀ Value Intraperitoneal: in physiological saline solution; for LD₅₀ Value Oral: oral by stomach sonde, in distilled water
Procedure: The acute toxicity was studied with Jcl:ICR mice through intraperitoneal route and oral route. For intraperitoneal route, the present substance was dissolved in a physiological saline solution and a predetermined dose of the substance was administered with an injector to the cavity. For oral route, the present substance was dissolved in a distilled water and administered forcibly through a stomach sonde.
After the administration, observation of toxicopathic symptoms of the mice were continued for 7 days and based on time to time death rates of the mice, LD₅₀ values were calculated. Both surviving and dead mice were anatomized and observed certain organs.

Wistar male rats [6] = experiment: Serum biochemical test, total bilirubin (liver function) of rats given CsA with the present substance; format: in vivo; details: CsA 25 mg/kg/day i.p. 3 weeks plus present substance 300 mg/kg/day orally
Procedure: as §1

[7] = 5,000 µg/disk, 37°C for 2 days, Drug-free Control 13
[8] = 5,000 µg/disk, 37°C for 2 days, Drug-free Control 149
[9] = 5,000 µg/disk, 16 hours at 37°C

Row | Compound | Kidney Function Inulin Clearance (Wistar male rats [1]) [mL/min] | Kidney Function Serum Creatinine (Wistar male rats [1]) [mg/dL] | No. of Reversion Colony TA98 [2, 7] [n/plate] | Depressing Ratio (human lymphocyte) [%] | No. of Reversion Colony TA100 [3, 8] [n/plate] | Growth Inhibited Area H17 (Bacillus subtilis H17; 500 µg/disk, 16 hours at 37°C) [mm] | Growth Inhibited Area H17 (Bacillus subtilis H17; [9]) [mm] | Body Weight [4] [g] | Growth Inhibited Area M45 (Bacillus subtilis M45; 500 µg/disk, 16 hours at 37°C) [mm] | Growth Inhibited Area M45 - H17 (Bacillus subtilis M45; 500 µg/disk) [mm] | Growth Inhibited Area M45 (Bacillus subtilis M45; [9]) [mm] | Growth Inhibited Area M45 - H17 (Bacillus subtilis M45; 5,000 µg/disk) [mm] | Blood sugar value measured 10 minutes after the test (Wistar male rats [5]) [mg/dL] | Insuline Value 10 Min.After The Test (Wistar male rats [5]) [mµ/ml] | Insuline Value Before The Test (Wistar male rats [5]) [mµ/ml] | LD₅₀ Value Intraperitoneal (Jcl:ICR mice) [mg/kg] | LD₅₀ Value Oral (Jcl:ICR mice) [mg/kg] | TBI (seerum total bilirubin value) (Wistar male rats [6]) [mg/dL] | further results
1 | O=C([O-])c1ccccc1NC1OCC(O)C(O)C1O.[Na+] [Compound 4, o-Aminobenzoic acid-N-L-arabinoside] | 1.78 | 0.67 | 4 | 26 | 59 | 0 | 4 | 218 | 0 | 0 | 8 | 4 | 591 | 6.22 | 3.89 | 7480 | 6350 | 0.37 | –
2 | CC1OC(Nc2ccccc2C(=O)[O-])C(O)C(O)C1O.[Na+] [Compound 20, o-Aminobenzoic acid-N-L-rhamnoside] | 1.95 | 0.64 | 9 | 26 | 61 | 0 | 2 | 233 | 0 | 0 | 6 | 4 | 576 | 6.38 | 4.34 | > 15000 | 12500 | 0.31 | –
3 | O=C(O)c1ccc(NC2OC[C@@H](O)[C@H](O)[C@H]2O)cc1 (stereo partly drawn) [Compound 6, p-Aminobenzoic acid-N-D-xyloside] | 1.70 | 0.66 | 4 | 26 | 58 | 0 | 0 | 208 | 0 | 0 | 0 | 0 | 598 | 6.20 | 4.28 | 11040 | 11750 | 0.35 | –
4 | O=C(O)c1ccc(NC2O[C@H](CO)[C@@H](O)[C@H](O)[C@@H]2O)cc1 (stereo partly drawn) [Compound 22, p-Aminobenzoic acid-N-D-mannoside] | 2.05 | 0.63 | 5 | 28 | 138 | 0 | 0 | 245 | 0 | 0 | 0 | 0 | 569 | 6.50 | 4.45 | > 10000 | >10000 | 0.27 | –
5 | O=C(O)c1cccc(NC2O[C@H](CO)[C@@H](O)[C@H](O)[C@@H]2O)c1 (stereo partly drawn) [Compound 24, m-Aminobenzoic acid-N-D-mannoside] | 2.00 | 0.64 | 6 | 27 | 90 | 0 | 1 | 240 | 0 | 0 | 7 | 6 | 578 | 6.37 | 4.40 | > 10000 | > 10000 | 0.30 | –
6 | NC[C@H]1O[C@H](O[C@H]2[C@H](O)[C@@H](O[C@H]3O[C@H](CO)[C@@H](O)[C@H](N)[C@H]3O)[C@H](N)C[C@@H]2N)[C@H](O)[C@@H](O)[C@@H]1O [Kanamycin, reference compound] | – | – | – | – | – | – | – | – | – | – | – | – | – | – | – | – | – | – | Growth Inhibited Area H17 (Bacillus subtilis H17; Bacillus subtilis, 16 h, 10 µg/disk, pH 7): 4 mm; Growth Inhibited Area M45 (Bacillus subtilis M45; 10 µg/disk, negative control): 5 mm; Growth Inhibited Area M45 - H17 (Bacillus subtilis M45; 10 µg/disk, negative control): 1 mm
7 | C[C@@H]1OC(Nc2ccc(C(=O)O)cc2)[C@H](O)[C@H](O)[C@H]1O (stereo partly drawn) [Compound 18, p-Aminobenzoic acid-N-L-rhamnoside] | 1.97 | 0.64 | 4 | 27 | 73 | 0 | 0 | 238 | 0 | 0 | 0 | 0 | 573 | 6.44 | 4.30 | 15000 | 12800 | 0.29 | –
8 | O=C(O)c1ccc(NC2O[C@H](CO)[C@H](O)[C@H](O)[C@H]2O)cc1 (stereo partly drawn) [Compound 14, p-Aminobenzoic acid-N-D-galactoside] | 1.88 | 0.66 | 7 | 26 | 51 | 0 | 0 | 215 | 0 | 0 | 0 | 0 | 584 | 6.10 | 4.13 | 12000 | 14550 | 0.33 | –
9 | NC(=O)/C(=C\c1ccc([N+](=O)[O-])o1)c1ccco1 [Furylfuramide (AF2), Furylfuramide, reference compound] | – | – | – | – | – | – | – | – | – | – | – | – | – | – | – | – | – | – | No. of Reversion Colony TA98 ([2]; 0.1 µg/disk, positive control): 167 n/plate; No. of Reversion Colony TA100 ([3]; 0.1 µg/disk, positive control): 911 n/plate
